According to patent US20240246964A1 (Arbutus Biopharma Corporation, priority 2021, published 2024):

What was measured:
human PD-L1 = human PD-L1 (Homo sapiens (Human), UniProt Q9NZQ7); assay: T cell activation luciferase reporter cell culture system (T Cell Activation Assay); format: cell-based; details: luciferase reporter assay; PD-L1 aAPC/CHO-K1 cells with PD-1 effector Jurkat T cells
[1] = target: PD-L1 His protein / PD-1 Fc protein (Homo sapiens (Human), UniProt Q9NZQ7); assay: HTRF Assay (PD-1/PD-L1 interaction); format: binding; details: PD-L1 His 6 nM, PD-1 Fc 6 nM
PD-L1 His protein / PD-1 Fc protein, sequence (Q9NZQ7 19-238): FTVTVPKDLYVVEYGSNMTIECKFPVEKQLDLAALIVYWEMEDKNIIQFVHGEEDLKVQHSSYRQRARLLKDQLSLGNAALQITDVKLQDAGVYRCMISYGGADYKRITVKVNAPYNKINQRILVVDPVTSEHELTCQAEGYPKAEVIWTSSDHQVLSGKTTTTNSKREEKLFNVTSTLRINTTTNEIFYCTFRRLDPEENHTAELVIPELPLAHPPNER

human PD-L1, sequence (Q9NZQ7 19-290): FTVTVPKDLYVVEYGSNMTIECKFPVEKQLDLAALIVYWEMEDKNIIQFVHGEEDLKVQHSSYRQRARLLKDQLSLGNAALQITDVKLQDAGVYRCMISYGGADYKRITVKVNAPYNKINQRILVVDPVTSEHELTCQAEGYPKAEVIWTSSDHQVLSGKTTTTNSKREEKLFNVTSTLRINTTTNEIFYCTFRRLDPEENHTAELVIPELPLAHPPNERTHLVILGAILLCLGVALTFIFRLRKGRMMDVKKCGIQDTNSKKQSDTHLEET

Row | Compound | EC50 (human PD-L1) | IC50 [1]
1 | COc1nc(-c2cccc(-c3ccnc(-c4ccc5c(c4)CNC5)c3Cl)c2Cl)ccc1CN(C)C1CCN(C(C)=O)CC1 [Compound 163, 1-(4-(((6-(2-chloro-3-(3-chloro-2-(isoindolin-5-yl)pyridine-4-yl)phenyl)-2-methoxypyridin-3-yl)methyl)(methyl)amino)piperidin-1-yl)ethan-1-one] | ≥ 10000 nM | 3.29 nM
2 | COc1nc(-c2ccnc(-c3cccc4c3CC[C@@H]4Nc3nc(OC)c(CNC4(C(=O)O)CC4)cc3C(F)(F)F)c2Cl)ccc1CNC[C@@H]1CCC(=O)N1 [Compound 164, 1-(((6-(((S)-4-(3′-chloro-6-methoxy-5-(((((S)-5-oxopyrrolidin-2-yl)methyl)amino)methyl)-[2,4′-bipyridin]-2′-yl)-2,3-dihydro-1H-inden-1-yl)amino)-2-methoxy-5-(trifluoromethyl)pyridine-3-yl)methyl)amino)cyclopropane-1-carboxylic acid] | 66.6 nM | 0.49 nM
3 | COc1nc(-c2ccnc(-c3cccc4c3CC[C@@H]4Oc3nc(OC)c(CNC[C@@H](C)O)cc3C(F)(F)F)c2Cl)ccc1CNC[C@@H]1CCC(=O)N1 [Compound 165, (S)-5-((((3′-chloro-2′-((S)-1-((5-((( ®-2-hydroxypropyl)amino)methyl)-6-methoxy-3-(trifluoromethyl)pyridine-2-yl)oxy)-2,3-dihydro-1H-inden-4-yl)-6-methoxy-[2,4′-bipyridin]-5-yl)methyl)amino)methyl)pyridine1332ne-2-one] | 4.15 nM | 0.35 nM
4 | COc1nc(-c2ccnc(-c3cccc4c3CC[C@@H]4Oc3nc(OC)c(CNC[C@@H]4CCC(=O)N4)cc3C(F)(F)F)c2Cl)ccc1CNC[C@@H]1CCC(=O)N1 [Compound 166, (S)-5-((((3′-chloro-6-methoxy-2′-((S)-1-((6-methoxy-5-(((((S)-5-oxopyrrolidin-2-yl)methyl)amino)methyl)-3-(trifluoromethyl)pyridine-2-yl)oxy)-2,3-dihydro-1H-inden-4-yl)-[2,4′-bipyridin]-5-yl)methyl)amino)methyl)pyridine1332ne-2-one] | 1.98 nM | 0.18 nM
5 | COc1nc(-c2cccc(-c3ccnc(-c4ccc5c(CNC6CCN(C(C)=O)CC6)nn(C)c5c4)c3Cl)c2Cl)ccc1CNC[C@@H]1CCC(=O)N1 [Compound 167, (S)-5-((((6-(3-(2-(3-(((1-acetylpiperidin-4-yl)amino)methyl)-1-methyl-1H-indazol-6-yl)-3-chloropyridin-4-yl)-2-chlorophenyl)-2-methoxypyridin-3-yl)methyl)amino)methyl)pyridine1332ne-2-one] | 18.4 nM | 1.47 nM
6 | COc1nc(-c2cccc(-c3ccnc(-c4ccc5c(CN(C)C6CCN(C(C)=O)CC6)nn(C)c5c4)c3Cl)c2Cl)ccc1CNC[C@@H]1CCC(=O)N1 [Compound 168, (S)-5-((((6-(3-(2-(3-(((1-acetylpiperidin-4-yl)(methyl)amino)methyl)-1-methyl-1H-indazol-6-yl)-3-chloropyridin-4-yl)-2-chlorophenyl)-2-methoxypyridin-3-yl)methyl)amino)methyl)pyridine1332ne-2-one] | 12.5 nM | 3.6 nM
7 | CNCc1ccc(-c2cccc(-c3ccnc(-c4cc(CNC[C@@H](O)CC(=O)O)cc(OC)c4)c3Cl)c2Cl)nc1OC [Compound 169, (S)-4-((3-(3-chloro-4-(2-chloro-3-(6-methoxy-5-((methylamino)methyl)pyridine-2-yl)phenyl)pyridine-2-yl)-5-methoxybenzyl)amino)-3-hydroxybutanoic acid] | 632 nM | 1.85 nM
8 | CNCc1ccc(-c2cccc(-c3ccnc(-c4cc(CNCCC(=O)O)cc(OC)c4)c3Cl)c2Cl)nc1OC [Compound 170, 3-((3-(3-chloro-4-(2-chloro-3-(6-methoxy-5-((methylamino)methyl)pyridine-2-yl)phenyl)pyridine-2-yl)-5-methoxybenzyl)amino)propanoic acid] | 415 nM | 0.73 nM
9 | CNCc1ccc(-c2cccc(-c3ccnc(-c4cc(CN5CC[C@H](C(=O)O)C5)cc(OC)c4)c3Cl)c2Cl)nc1OC [Compound 171, (S)-1-(3-(3-chloro-4-(2-chloro-3-(6-methoxy-5-((methylamino)methyl)pyridine-2-yl)phenyl)pyridine-2-yl)-5-methoxybenzyl)pyrrolidine-3-carboxylic acid] | 670 nM | 1.65 nM
10 | CNCc1ccc(-c2cccc(-c3ccnc(-c4cc(CN5CC(CC(=O)O)C5)cc(OC)c4)c3Cl)c2Cl)nc1OC [Compound 172, 2-(1-(3-(3-chloro-4-(2-chloro-3-(6-methoxy-5-((methylamino)methyl)pyridine-2-yl)phenyl)pyridine-2-yl)-5-methoxybenzyl)pyridine1333-3-yl)acetic acid] | ≥ 10000 nM | 3.32 nM
11 | CNCc1ccc(-c2cccc(-c3ccnc(-c4cc(CN5CC6(CC(C(=O)O)C6)C5)cc(OC)c4)c3Cl)c2Cl)nc1OC [Compound 173, 2-(3-(3-chloro-4-(2-chloro-3-(6-methoxy-5-((methylamino)methyl)pyridine-2-yl)phenyl)pyridine-2-yl)-5-methoxybenzyl)-2-azaspiro[3.3]heptane-6-carboxylic acid] | ≥ 10000 nM | 32.1 nM
12 | CNCc1ccc(-c2cccc(-c3ccnc(-c4cc(CNC56CC(C(=O)O)(C5)C6)cc(OC)c4)c3Cl)c2Cl)nc1OC [Compound 174, 3-((3-(3-chloro-4-(2-chloro-3-(6-methoxy-5-((methylamino)methyl)pyridine-2-yl)phenyl)pyridine-2-yl)-5-methoxybenzyl)amino)bicyclo[1.1.1]pentane-1-carboxylic acid] | ≥ 10000 nM | 23.6 nM
13 | CNCc1ccc(-c2cccc(-c3ccnc(-c4cc(CNCC56CC(C(=O)O)(C5)C6)cc(OC)c4)c3Cl)c2Cl)nc1OC [Compound 175, 3-(((3-(3-chloro-4-(2-chloro-3-(6-methoxy-5-((methylamino)methyl)pyridine-2-yl)phenyl)pyridine-2-yl)-5-methoxybenzyl)amino)methyl)bicyclo[1.1.1]pentane-1-carboxylic acid] | 1160 nM | 8.73 nM
14 | COc1cc(-c2nccc(-c3cccc(-c4cc(F)c(CNC[C@@H]5CCC(=O)N5)c(OC)n4)c3Cl)c2Cl)cc2c1CN(C[C@H](C)O)CC2 [Compound 176, (S)-5-((((6-(2-chloro-3-(3-chloro-2-(2-((S)-2-hydroxypropyl)-8-methoxy-1,2,3,4-tetrahydroisoquinolin-6-yl)pyridine-4-yl)phenyl)-4-fluoro-2-methoxypyridin-3-yl)methyl)amino)methyl)pyridine1334ne-2-one] | 9.99 nM | 1.05 nM
15 | COc1nc(-c2cccc(-c3ccnc(-c4ccc5c(c4)S(=O)(=O)CCNC5)c3Cl)c2Cl)ccc1CNC[C@@H]1CCC(=O)N1 [Compound 177, (S)-5-((((6-(2-chloro-3-(3-chloro-2-(1,1-dioxido-2,3,4,5-tetrahydrobenzo[f][1,4]pyridine1334n-8-yl)pyridine-4-yl)phenyl)-2-methoxypyridin-3-yl)methyl)amino)methyl)pyridine1334ne-2-one] | 176 nM | 1.76 nM
16 | COc1nc(-c2cccc(-c3ccnc(-c4ccc5c(c4)CN(CCNC[C@@H]4CCC(=O)N4)C5=O)c3Cl)c2Cl)cc(F)c1CNC[C@@H]1CCC(=O)N1 [Compound 178, 5-(3-chloro-4-(2-chloro-3-(4-fluoro-6-methoxy-5-(((((S)-5-oxopyrrolidin-2-yl)methyl)amino)methyl)pyridine-2-yl)phenyl)pyridine-2-yl)-2-(2-((((S)-5-oxopyrrolidin-2-yl)methyl)amino)ethyl)isoindolin-1-one] | 144 nM | 1.25 nM
17 | COc1cc(-c2nccc(-c3cccc(-c4ccc(CNC[C@@H]5CCC(=O)N5)c(OC)n4)c3Cl)c2Cl)ccc1C1=NCCN1 [Compound 179, (S)-5-((((6-(2-chloro-3-(3-chloro-2-(4-(4,5-dihydro-1H-imidazol-2-yl)-3-methoxyphenyl)pyridine-4-yl)phenyl)-2-methoxypyridin-3-yl)methyl)amino)methyl)pyridine1334ne-2-one] | 30.8 nM | 2.45 nM
18 | COc1cc(-c2nccc(-c3cccc(-c4ccc(C5=NCCN5)c(OC)n4)c3Cl)c2Cl)ccc1CNC[C@@H](O)CC(=O)O [Compound 180, (S)-4-((4-(3-chloro-4-(2-chloro-3-(5-(4,5-dihydro-1H-imidazol-2-yl)-6-methoxypyridin-2-yl)phenyl)pyridine-2-yl)-2-methoxybenzyl)amino)-3-hydroxybutanoic acid] | 35.9 nM | 5.64 nM
19 | COc1cc(-c2nccc(-c3cccc(-c4ccc(CNC[C@@H]5CCC(=O)N5)c(OC)n4)c3Cl)c2Cl)cc(F)c1CNC[C@@H]1CCO1 [Compound 181, (S)-5-((((6-(2-chloro-3-(3-chloro-2-(3-fluoro-5-methoxy-4-(((((S)-oxetan-2-yl)methyl)amino)methyl)phenyl)pyridine-4-yl)phenyl)-2-methoxypyridin-3-yl)methyl)amino)methyl)pyridine1335ne-2-one] | 30.5 nM | 11.2 nM
20 | COC(=O)C1CN(Cc2nn3cc(-c4nccc(-c5cccc(-c6ccc(CNC[C@@H]7CCC(=O)N7)c(OC)n6)c5Cl)c4Cl)cc3c(=O)n2C)C1 [Compound 182, methyl (S)-1-((6-(3-chloro-4-(2-chloro-3-(6-methoxy-5-((((5-oxopyrrolidin-2-yl)methyl)amino)methyl)pyridine-2-yl)phenyl)pyridine-2-yl)-3-methyl-4-oxo-3,4-dihydropyrrolo[2,1-f][1,2,4]pyridine-2-yl)methyl)azetidine-3-carboxylate] | 38.7 nM | 2.46 nM
21 | COc1nc(-c2cccc(-c3ccnc(-c4ccc5c(CNC[C@@H]6CCC(=O)N6)nn(C)c5c4)c3Cl)c2Cl)ccc1CNC[C@@H]1CCC(=O)N1 [Compound 183, (S)-5-((((6-(2-chloro-3-(3-chloro-2-(1-methyl-3-(((((S)-5-oxopyrrolidin-2-yl)methyl)amino)methyl)-1H-indazol-6-yl)pyridine-4-yl)phenyl)-2-methoxypyridin-3-yl)methyl)amino)methyl)pyridine1335ne-2-one] | 44.9 nM | 2.95 nM
